In patent US20060182728A1, “Methods for treating pervasive development disorders” (priority 1999, published 2006):

Experiments:
[1] = tested on: children diagnosed with ADHD; assay: Required Ritalin level of ADHD children administered secretin; assay type: in vivo, human; conditions: each of 5 ADHD children with pathologic FC level; 6 months post-secretin vs pre-secretin
Experimental: A preferred secretin infusion process includes the initial step of prepping an arm of the candidate child with an IV injection of saline. A test dose of 1 U of Secretin-Ferring is then administered to the child. Approximately one minute after infusion, the child is examined for signs of allergic reaction including rash, increased heart rate, and increase of blood pressure. […] Subsequently, each child receives a 1 U/kg of body weight infusion of Secretin-Ferring approximately every 6 weeks for 9 months. It is to be understood that any commercially available form of secretin may be used.
In this experiment, the fecal chymotrypsin levels of 34 children diagnosed with ADHD were obtained using the fecal chymotrypsin test described above in Experiment 1, the levels of which are illustrated in FIG. 16. As shown, 32 children out of 34 children tested were determined to have sub-normal fecal chymotrypsin levels.
To determine the effect of secretin administration on ADHD children, 5 of the 24 children having a pathologic fecal chymotrypsin level were administered secretin using the secretin infusion process described above.

[2] = tested on: children diagnosed as having autism; assay: Fecal Chymotrypsin Test after secretin infusion in autistic children; assay type: in vivo, human
Experimental: In this experiment, 16 children diagnosed as having autism were administered the following Fecal Chymotrypsin Test in accordance with an embodiment of the invention. First, approximately 2 grams of stool were collected from each child and placed in a sterile container (although it is to be understood that any quantity of stool may be collected, as 2 grams of stool is not a required amount). Each stool sample was then analyzed using, e.g., an enzymatic photospectrometry analysis as is known by those skilled in the art, to determine the level of fecal chymotrypsin in the stool. Although the enzymatic photospectrophotometry process is preferred, any suitable conventional method may be used for measuring the fecal chymotrypsin levels. This measured chymotrypsin levels of the 16 autistic children are illustrated in FIG. 13.
After determining the chymotrypsin levels of the stools, each of these levels were compared with threshold chymotrypsin levels to determine if the child was likely to benefit from secretin administration. By way of example, with the fecal chymotrypsin tests of the stool samples being performed at 30EC, normal levels of chymotrypsin are deemed to lie above 8.4 U/gram, whereas pathologically abnormal levels are deemed to lie below 4.2 U/gram. In addition, chymotrypsin levels between 8.4 U/gram and 4.2 U/gram are considered equivocal, and further testing of the individual's fecal chymotrypsin levels over a period of time should be performed.
For each of the 16 autistic children tested, a preferred secretin infusion process according to the present invention was performed involving the administering of 1 U/kg of body weight of Secretin-Ferring for a period of nine months at intervals of approximately 6 weeks. […]
In this experiment, 37 autistic children with abnormal fecal chymotrypsin levels were administered secretin over the course of 6 months using the secretin infusion process described above. Their fecal chymotrypsin (FC) levels were measured weekly using the fecal chymotrypsin test described above.

[3] = 6 Months Post-Secretin Administration, of 37 children, 0 pre-secretin

## secretin
[1]
  level of Ritalin (mg) needed to remain at the same functional level: significant changes
[2]; [3]
  # Autistic Children w/Equivocal FC levels: 2
  # Autistic Children w/normal FC levels: 34
[2]; each of 16 autistic children, approximately one week after first secretin infusion, 1 U/kg IV
  fecal chymotrypsin level post-secretin administration compared with pre-secretin: increased
